In publication PMC5040251, “The Structure of Treponema pallidum Tp0751 (Pallilysin) Reveals a Non-canonical Lipocalin Fold That Mediates Adhesion to Extracellular Matrix Components and Interactions with Host Cells” (PLoS Pathogens, 2016):
Ends that are not written are not given here.

Experiments:
fibrinogen = molecular target: T1, fibrinogen (Homo sapiens, UniProt P02671+P02675+P02679); experiment: Initial (single point) binding screen of Tp0751 peptide library to immobilized fibrinogen; settings: absorbance 600 nm, three wells, two independent experiments, Student's two-tailed t-test against non-binding peptides
T1 construct: purchased Calbiochem, purchased from VWR International
T1 sequence (P02671 20-629 limits assumed): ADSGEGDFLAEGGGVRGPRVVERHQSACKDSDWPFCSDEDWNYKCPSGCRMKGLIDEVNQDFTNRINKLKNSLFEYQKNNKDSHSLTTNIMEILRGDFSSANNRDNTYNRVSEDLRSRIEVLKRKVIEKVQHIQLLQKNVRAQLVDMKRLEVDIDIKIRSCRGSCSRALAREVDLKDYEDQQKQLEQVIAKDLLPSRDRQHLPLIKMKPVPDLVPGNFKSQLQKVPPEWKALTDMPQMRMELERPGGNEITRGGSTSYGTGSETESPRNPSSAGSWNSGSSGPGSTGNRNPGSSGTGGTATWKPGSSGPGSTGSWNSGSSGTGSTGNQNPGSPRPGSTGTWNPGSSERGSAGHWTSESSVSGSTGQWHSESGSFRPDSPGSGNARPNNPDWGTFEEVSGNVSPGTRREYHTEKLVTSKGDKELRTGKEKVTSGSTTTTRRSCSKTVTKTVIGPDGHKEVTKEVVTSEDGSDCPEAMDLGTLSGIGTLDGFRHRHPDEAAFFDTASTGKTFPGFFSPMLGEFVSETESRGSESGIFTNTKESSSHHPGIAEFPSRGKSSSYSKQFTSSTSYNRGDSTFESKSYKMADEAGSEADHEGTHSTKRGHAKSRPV
T1 sequence (P02675 31-491): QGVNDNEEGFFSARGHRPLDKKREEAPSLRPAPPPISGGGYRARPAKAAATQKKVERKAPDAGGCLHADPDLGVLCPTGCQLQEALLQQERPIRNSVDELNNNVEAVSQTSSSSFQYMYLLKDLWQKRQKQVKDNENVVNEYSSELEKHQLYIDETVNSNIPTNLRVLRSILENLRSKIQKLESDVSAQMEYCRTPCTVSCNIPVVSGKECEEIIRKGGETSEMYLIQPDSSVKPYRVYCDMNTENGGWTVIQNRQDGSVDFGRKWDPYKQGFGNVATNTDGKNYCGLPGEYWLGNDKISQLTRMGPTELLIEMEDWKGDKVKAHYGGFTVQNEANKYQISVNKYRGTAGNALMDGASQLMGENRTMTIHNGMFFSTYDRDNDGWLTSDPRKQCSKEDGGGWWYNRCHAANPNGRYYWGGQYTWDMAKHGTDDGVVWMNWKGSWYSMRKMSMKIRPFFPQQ
T1 sequence (P02679 27-433 limits assumed): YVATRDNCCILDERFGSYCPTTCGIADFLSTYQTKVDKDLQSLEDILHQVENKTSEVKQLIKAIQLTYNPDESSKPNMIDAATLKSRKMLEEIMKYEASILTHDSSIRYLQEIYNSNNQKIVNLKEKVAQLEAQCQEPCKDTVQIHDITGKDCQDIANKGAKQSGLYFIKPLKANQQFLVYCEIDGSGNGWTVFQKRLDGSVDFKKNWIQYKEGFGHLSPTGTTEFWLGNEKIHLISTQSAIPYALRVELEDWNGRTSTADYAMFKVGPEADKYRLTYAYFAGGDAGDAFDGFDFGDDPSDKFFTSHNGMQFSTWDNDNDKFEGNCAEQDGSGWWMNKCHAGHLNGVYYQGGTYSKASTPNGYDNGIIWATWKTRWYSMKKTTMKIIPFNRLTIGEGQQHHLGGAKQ
Description: (§1) Fig 3 Tp0751 lipocalin derived peptides directly bind host proteins. (A) Thirteen overlapping Tp0751 synthetic 24-mer peptides were evaluated for binding to immobilized fibrinogen, fibronectin, collagen type I, and collagen type IV. Average absorbance readings (600 nm) from three wells are presented with bars indicating standard error and the results are representative of two independent experiments. […] Average absorbance readings (600 nm) from three wells are presented with bars indicating standard error and the results are representative of two independent experiments. […] The strand colored in cyan reflects the overlap of p10 and p11. Color coded sequences of peptides p4, p6, p10, p10scr1, and p10scr2 are shown. Arginine residues in the p10 peptides are indicated by underlining.
(§2) Plasminogen-depleted human fibrinogen (Calbiochem) was purchased from VWR International. Laminin isolated from Engelbreth-Holm-Swarm murine sarcoma basement membrane and fibronectin isolated from human plasma were purchased from Sigma-Aldrich Canada Ltd. (Oakville, ON). Human collagen types I and IV (Rockland Immunochemicals, Inc.) were purchased from VWR International.
(§3) To test for binding of synthetic Tp0751 peptides p1-p13, p1scr, p6scr, p10scr1, and p10scr2 to the host proteins fibrinogen, fibronectin, laminin, collagen type I, and collagen type IV, initial binding assays were performed as described previously. For dose-dependent binding assays, recombinant proteins were serially diluted 1:2 from either 10 μM to 0.156 μm (Tp0751_78A used for crystallization and Tp0751_78 WT) or 40 μm to 0.625 μm (peptides p4, p6, p10, p11, p10scr1, and p10scr2). Average absorbance readings (600 nm) from three wells are presented with bars indicating standard error and the results are representative of two independent experiments. Plates were read at 600 nm with a BioTek enzyme-linked immunosorbent assay plate reader (Fisher Scientific, Ottawa, ON). All statistical analyses were performed using the Student’s two-tailed t-test. Non-linear regression curves were fitted and apparent dissociation constants (K d) were calculated using GraphPad Prism data analysis software (San Diego, CA).

collagen type IV = experiment: Initial (single point) binding screen of Tp0751 peptide library to immobilized collagen type IV; settings: immobilized human collagen type IV; absorbance 600 nm, three wells, two independent experiments; Student's two-tailed t-test against non-binding peptides
Description: as §1, §2, §3

fibronectin [1] = experiment: Dose-dependent binding assay to immobilized fibronectin; settings: plate binding to immobilized human plasma fibronectin; peptides serially diluted 1:2 from 40 to 0.625; absorbance 600 nm, three wells, representative of two independent experiments; non-linear regression, GraphPad Prism; read-out: Apparent Kd (Fn)
Description: as §1, §2, §3

fibronectin [2] = experiment: Initial (single point) binding screen of Tp0751 peptide library to immobilized fibronectin; design: species or system human; settings: absorbance 600 nm, three wells, two independent experiments, Student's two-tailed t-test against non-binding peptides
Description: as §1, §2, §3

collagen type I = experiment: Initial (single point) binding screen of Tp0751 peptide library to immobilized collagen type I; settings: immobilized human collagen type I; absorbance 600 nm, three wells, two independent experiments; Student's two-tailed t-test against non-binding peptides
Description: as §1, §2, §3

Sequence: HHHHHHGGAAQTHTQPPVQTAMRIALWNRA [p4]
- Binding to fibrinogen in initial binding screen (fibrinogen): statistically significant binding
- Binding to collagen IV in initial binding screen (collagen type IV): statistically significant binding
- Kd (fibronectin [1]): 2.4 ± 0.1 µM
- Binding to fibronectin in initial binding screen (fibronectin [2]): statistically significant binding
- Binding to collagen I in initial binding screen (collagen type I): statistically significant binding

Sequence: HHHHHHQGALQHLLAGLWIQTEISPNSGDI [p6]
- Binding to fibrinogen in initial binding screen (fibrinogen): statistically significant binding
- Binding to collagen IV in initial binding screen (collagen type IV): statistically significant binding
- Kd (fibronectin [1]): 4.5 ± 0.9 µM
- Binding to fibronectin in initial binding screen (fibronectin [2]): statistically significant binding
- Binding to collagen I in initial binding screen (collagen type I): statistically significant binding

Sequence: HHHHHHRKTVSFLTRNTAISSIRRRLEVTF [p10]
- Binding to fibrinogen in initial binding screen (fibrinogen): significant binding
- Binding to collagen IV in initial binding screen (collagen type IV): significant binding
- Kd (fibronectin [1]): 1.6 ± 0.2 µM
- Binding to fibronectin in initial binding screen (fibronectin [2]): significant binding
- Binding to collagen I in initial binding screen (collagen type I): not to collagen I

Sequence: HHHHHHSIRRRLEVTFESHEVIHVRAVEDV [p11]
- Binding to fibrinogen in initial binding screen (fibrinogen): statistically significant binding
- Binding to collagen IV in initial binding screen (collagen type IV): statistically significant binding
- Kd (fibronectin [1]): 5.8 ± 0.3 µM
- Binding to fibronectin in initial binding screen (fibronectin [2]): statistically significant binding
- Binding to collagen I in initial binding screen (collagen type I): statistically significant binding
